Measurements from patent US9556150B2, “Inhibitors of bruton's tyrosine kinase” (Hoffmann-La Roche Inc., priority 2013, dated 2017).
Where a name gives a salt, the structure may show the parent alone.

Target: Bruton's Tyrosine Kinase (BTK), inactivated state (Homo sapiens (Human), UniProt Q06187)
Assay: Bruton's Tyrosine Kinase (BTK) Inhibition TR-FRET (Time Resolved FRET) competition assay
Assay type: binding
Details: TR-FRET competition with Kinase Tracer 178, BTK-Eu complex, 18-24 h at 14° C.
Experimental: Bruton's Tyrosine Kinase (BTK) Inhibition TR-FRET (Time Resolved FRET) Assay
This BTK competition assay measures compound potency (IC50) for the inactivated state of Bruton's Tyrosine Kinase using FRET (Förster/Fluorescence Resonance Energy Transfer) technology. The BTK-Eu complex was incubated on ice one hour prior to use at a starting concentration of 50 nM BTK-Bioease™: 10 nM Eu-streptavidin (Perkin-Elmer Catalog#AD0062). The assay buffer consisted of 20 mM HEPES (pH 7.15), 0.1 mM DTT, 10 mM MgCl2, 0.5 mg/ml BSA with 3% Kinase Stabilizer (Fremont Biosolutions, Catalog #STB-K02). After 1 h, the reaction mixture from above was diluted 10 fold in assay buffer to make 5 nM BTK: 1 nM Eu-Streptavidin complex (donor fluorophore). 18 μl of a mixture of 0.11 nM BTK-Eu and 0.11 nM Kinase Tracer 178 (Invitrogen, Catalog #PV5593,) with BTK-Eu alone as no negative control, was then dispensed into 384-well flat bottom plates (Greiner, 784076). Compounds to be tested in assay were prepared as 10× concentrations and serial dilution in half-log increments was performed in DMSO so as to generate 10 point curves. To initiate the FRET reaction, compounds prepared as 10× stock in DMSO was added to the plates and the plates were incubated 18-24 h at 14° C.
After the incubation the plates were read on a BMG Pherastar Fluorescent plate reader (or equivalent) and used to measure the emission energy from the europium donor fluorophore (620 nm emission) and the FRET (665 nm emission). The negative control well values were averaged to obtain the mean minimum. The positive “no inhibitor” control wells were averaged to obtain the mean maximum. Percent of maximal FRET was calculated using following equation: % max FRET=100×[(FSR cmpd−FSR mean min)/(FSR mean max−FSR mean min)]
where FSR=FRET Signal ratio. % Max FRET curves were plotted in Activity Base (Excel) and the IC50(%), hill slope, z′ and % CV were determined. The mean IC50 and standard deviation will be derived from duplicate curves (singlet inhibition curves from two independent dilutions) using Microsoft Excel.
Representative compound data for this assay are listed below in Table II.

Bruton's Tyrosine Kinase (BTK), inactivated state, sequence (Q06187 whole entry): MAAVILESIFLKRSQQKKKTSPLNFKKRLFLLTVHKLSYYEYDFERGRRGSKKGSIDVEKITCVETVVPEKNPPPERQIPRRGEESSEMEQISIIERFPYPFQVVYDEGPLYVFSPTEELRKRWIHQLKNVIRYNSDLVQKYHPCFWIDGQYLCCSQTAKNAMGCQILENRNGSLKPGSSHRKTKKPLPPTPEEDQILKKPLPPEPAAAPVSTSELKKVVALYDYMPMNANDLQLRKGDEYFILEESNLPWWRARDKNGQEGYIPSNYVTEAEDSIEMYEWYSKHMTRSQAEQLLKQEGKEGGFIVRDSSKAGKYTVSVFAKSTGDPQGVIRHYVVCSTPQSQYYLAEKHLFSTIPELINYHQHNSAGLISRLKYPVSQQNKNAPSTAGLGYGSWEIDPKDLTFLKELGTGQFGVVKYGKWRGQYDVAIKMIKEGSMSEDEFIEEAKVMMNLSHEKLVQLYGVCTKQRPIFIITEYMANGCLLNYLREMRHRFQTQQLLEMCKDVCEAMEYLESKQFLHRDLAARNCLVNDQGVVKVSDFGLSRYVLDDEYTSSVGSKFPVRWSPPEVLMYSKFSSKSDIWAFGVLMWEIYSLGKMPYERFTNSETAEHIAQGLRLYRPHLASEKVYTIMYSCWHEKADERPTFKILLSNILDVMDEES

In order of rising IC50:
1. Nc1c(C(=O)c2cc3cc(C(=O)N4CCOCC4)ccc3[nH]2)cnn1-c1ccc(Oc2ccccc2)cc1Cl [Example I-14, [5-Amino-1-(2-chloro-4-phenoxy-phenyl)-1H-pyrazol-4-yl]-[5-(morpholine-4-carbonyl)-1H-indol-2-yl]-methanone]  0.46 nM
2. Nc1c(C(=O)c2cc3cc(C(=O)N4CCOCC4)ccc3[nH]2)cnn1-c1ccc(Oc2cccc(F)c2F)cc1Br [Example I-22, {5-Amino-1-[2-bromo-4-(2,3-difluoro-phenoxy)-phenyl]-1H-pyrazol-4-yl}-[5-(morpholine-4-carbonyl)-1H-indol-2-yl]-methanone]  1.3 nM
3. CN(C)CCNC(=O)c1ccc2[nH]c(C(=O)c3cnn(-c4ccc(Oc5ccccc5C(=O)N(C)C)cc4Cl)c3N)cc2c1 [Example I-49, 2-{5-Amino-1-[2-chloro-4-(2-dimethylcarbamoyl-phenoxy)-phenyl]-1H-pyrazole-4-carbonyl}-1H-indole-5-carboxylic acid (2-dimethylamino-ethyl)-amide]  1.4 nM
4. COCCNC(=O)c1ccc2[nH]c(C(=O)c3cnn(-c4ccc(Oc5cccc(F)c5F)cc4C)c3N)cc2c1 [Example I-35, 2-{5-Amino-1-[4-(2,3-difluoro-phenoxy)-2-methyl-phenyl]-1H-pyrazole-4-carbonyl}-1H-indole-5-carboxylic acid (2-methoxy-ethyl)-amide]  1.8 nM
5. CNC1CCN(C(=O)c2ccc3[nH]c(C(=O)c4cnn(-c5ccc(Oc6ccccc6C(=O)N(C)C)cc5Cl)c4N)cc3c2)CC1 [Example I-58, 2-(4-{5-Amino-4-[5-(4-methylamino-piperidine-1-carbonyl)-1H-indole-2-carbonyl]-pyrazol-1-yl}-3-chloro-phenoxy)-N,N-dimethyl-benzamide]  2.1 nM
6. CN(C)C(=O)c1ccccc1Oc1ccc(-n2ncc(C(=O)c3cc4cc(C(=O)N5CCC(N(C)C)C5)ccc4[nH]3)c2N)c(Cl)c1 (stereo not drawn) [Example I-50, 2-(4-{5-Amino-4-[5-(3-dimethylamino-pyrrolidine-1-carbonyl)-1H-indole-2-carbonyl]-pyrazol-1yl}-3-chloro-phenoxy)-N,N-dimethyl-benzamide]  2.5 nM
7. Cc1cc(Oc2ccccc2)ccc1-n1ncc(C(=O)c2cc3cc(C(=O)N4CCOCC4)ccc3[nH]2)c1N [Example I-7, {2-[5-Amino-1-(2-methyl-4-phenoxy-phenyl)-1H-pyrazole-4-carbonyl]-1H-indol-5-yl}-morpholin-4-yl-methanone]  2.6 nM
8. Cc1cc(Oc2cccc(Cl)c2)ccc1-n1ncc(C(=O)c2cc3cc(C(=O)N4CCOCC4)ccc3[nH]2)c1N [Example I-16, (2-{5-Amino-1-[4-(3-chloro-phenoxy)-2-methyl-phenyl]-1H-pyrazole-4-carbonyl}-1H-indol-5-yl)-morpholin-4-yl-methanone]  3.6 nM
9. CN1CCN(C(=O)c2ccc3[nH]c(C(=O)c4cnn(-c5ccc(Oc6ccccc6C(=O)N(C)C)cc5Cl)c4N)cc3c2)CC1 [Example I-46, 2-(4-{5-Amino-4-[5-(4-methyl-piperazine-1-carbonyl)-1H-indole-2-carbonyl]-pyrazol-1-yl}-3-chloro-phenoxy)-N,N-dimethyl-benzamide]  4.2 nM
10. Cc1cc(Oc2cccc(C(C)(C)C)c2)ccc1-n1ncc(C(=O)c2cc3cc(C(=O)N4CCOCC4)ccc3[nH]2)c1N [Example I-19, {5-Amino-1-[4-(3-tert-butyl-phenoxy)-2-methyl-phenyl]-1H-pyrazol-4-yl}-[5-(morpholine-4-carbonyl)-1H-indol-2-yl]-methanone]  6.8 nM
11. CN1CCN(C(=O)c2ccc3[nH]c(C(=O)c4cnn(-c5ccc(Oc6cccc(C#N)c6)cc5Cl)c4N)cc3c2)CC1 [Example I-44, 3-(4-{5-Amino-4-[5-(4-methyl-piperazine-1-carbonyl)-1H-indole-2-carbonyl]-pyrazol-1-yl}-3-chloro-phenoxy)-benzonitrile hydrochloride salt]  8 nM
12. Nc1c(C(=O)c2cc3cc(C(=O)N4CCOCC4)ccc3[nH]2)cnn1-c1ccc(Oc2ccccc2)c(F)c1 [Example I-4, [5-Amino-1-(3-fluoro-4-phenoxy-phenyl)-1H-pyrazol-4-yl]-[5-(morpholine-4-carbonyl)-1H-indol-2-yl]-methanone]  12 nM
13. CN(C)C(=O)c1ccccc1Oc1ccc(-n2ncc(C(=O)c3cc4cc(C(=O)O)ccc4[nH]3)c2N)c(Cl)c1 [Example I-59, 2-{5-Amino-1-[2-chloro-4-(2-dimethylcarbamoyl-phenoxy)-phenyl]-1H-pyrazole-4-carbonyl}-1H-indole-5-carboxylic acid]  12 nM
14. Nc1c(C(=O)c2cc3cc(C(=O)N4CCOCC4)ccc3[nH]2)cnn1-c1ccc(Oc2ccccc2)cc1F [Example I-8, [5-Amino-1-(2-fluoro-4-phenoxy-phenyl)-1H-pyrazol-4-yl]-[5-(morpholine-4-carbonyl)-1H-indol-2-yl]-methanone]  14.4 nM
15. CN(C)C(=O)c1ccccc1Oc1ccc(-n2ncc(C(=O)c3cc4cc(C(=O)N5CCC(N(C)C(=O)OC(C)(C)C)C5)ccc4[nH]3)c2N)c(Cl)c1 (stereo not drawn) [Example I-52, [1-(2-{5-Amino-1-[2-chloro-4-(2-dimethylcarbamoyl-phenoxy)-phenyl]-1Hpyrazole-4-carbonyl}-1H-indole-5-carbonyl)-pyrrolidin-3-yl]-methyl-carbamic acid tert-butyl ester]  17 nM
16. COCCNC(=O)c1ccc2[nH]c(C(=O)c3cnn(-c4ccc(Oc5cccc(C#N)c5)cc4C)c3N)nc2c1 [Example I-40, 2-{5-Amino-1-[4-(3-cyano-phenoxy)-2-methyl-phenyl]-1H-pyrazole-4-carbonyl}-1H-benzoimidazole-5-carboxylic acid (2-methoxy-ethyl)-amide]  23 nM
17. Cc1cc(Oc2ccccc2)ncc1-n1ncc(C(=O)c2cc3cc(C(=O)N4CCOCC4)ccc3[nH]2)c1N [Example I-3, [5-Amino-1-(4-methyl-6-phenoxy-pyridin-3-yl)-1H-pyrazol-4-yl]-[5-(morpholine-4-carbonyl)-1H-indol-2-yl]-methanone]  25 nM
18. N#Cc1cccc(Oc2ccc(-n3ncc(C(=O)c4cc5cc(C(=O)O)ccc5[nH]4)c3N)c(Cl)c2)c1 [Example I-34, 2-{5-Amino-1-[2-chloro-4-(3-cyano-phenoxy)-phenyl]-1H-pyrazole-4-carbonyl}-1H-indole-5-carboxylic acid]  25.1 nM
19. NC(=O)c1cccc(Oc2ccc(-n3ncc(C(=O)c4cc5cc(C(=O)N6CCOCC6)ccc5[nH]4)c3N)c(Cl)c2)c1 [Example I-37, 3-(4-{5-Amino-4-[5-(morpholine-4-carbonyl)-1H-indole-2-carbonyl]-pyrazol-1-yl}-3-chloro-phenoxy)-benzamide]  50 nM
20. Nc1c(C(=O)c2cc3cc(C(=O)N4CCOCC4)ccc3[nH]2)cnn1-c1ccc(Oc2cccc(F)c2F)nc1 [Example I-10, {5-Amino-1-[6-(2,3-difluoro-phenoxy)-pyridin-3-yl]-1H-pyrazol-4-yl}-[5-(morpholine-4-carbonyl)-1H-indol-2-yl]-methanone]  180 nM
21. N#Cc1cccc(Oc2ccc(-n3ncc(C(=O)c4cc5cc(Br)ccc5[nH]4)c3N)c(Cl)c2)c1 [Example I-33, 3-{4-[5-Amino-4-(5-bromo-1H-indole-2-carbonyl)-pyrazol-1-yl]-3-chloro-phenoxy}-benzonitrile]  430 nM
